From patent publication US11753408B2, “Compounds and method for blocking transmission of malarial parasite” (The United States of America, as represented by the …, priority 2016, dated 2023)

Experiments:
[1] = test system: Asexual parasites of P. falciparum strain 3D7; test: In vitro drug activity on asexual parasites (SYBR Green assay); format: cell-based, Plasmodium falciparum
In short: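 SYBR Green I fluorescence (ex 490, em 520 nm) was read after freeze-thaw lysis and 30 min staining at room temperature. Before that, drug-treated cultures (0.5% parasitemia, 2% hematocrit, DMSO ≤0.5%) were incubated 72 h, in duplicate.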

Solubility at pH 7.4 = format: physicochemical
[2] = Microsomal stability (rat); format: in vitro ADME; conditions: rat microsomes
mTOR = mTOR (Homo sapiens, UniProt P42345); test: mTOR activity (no method described); format: biochemical
[3] = test system: Stage III-V gametocytes (blood stage P. falciparum parasites); test: In vitro drug activity on gametocytes (AlamarBlue viability assay); format: cell-based, Plasmodium falciparum; conditions: for EC50: read-out: Gametocyte EC50
Method: Cell culture. Asexual parasites of P. falciparum strain 3D7 were cultured as described previously [Trager W, et al., Journal of Parasitology 2005, 91: 484-486], Stage III-V gametocytes were selected and enriched with 3-day treatment with 50 mM N-acetylglucosamine (NAG) and the following Percoll density gradient centrifugation after gametocyte production [Tanaka T Q, et al., Molecular and Biochemical Parasitology, 2011, 111: 160-163], Gametocytes of HB3 and Dd2 strains were produced and then set up for assay in a similar process. HepG2 cells (ATCC, cat. no. 77400) were cultured in 175-cm^2 tissue culture flasks with 30 ml growth medium at 37° C. in a 5% CO2 humidified atmosphere. Growth medium was made with Dulbecco's Modified Eagle Medium with 10% fetal bovine serum (FBS). Growth medium was replaced every other day and cells were passed at 75% confluence.
Compound screening experiments were performed as previously described [Tanaka T Q et al., Molecular and Biochemical Parasitology, 2013, 3188: 20-25], Briefly, 2.5 μl/well incomplete medium was dispensed into each well of 1,536-well plates using the Multidrop Combi followed by 23 nl compound transferring using the NX-TR Pintool (WAKO Scientific Solutions, San Diego, Calif.). 2.5 μl/well of gametocytes was dispensed with a seeding density of 20,000 cells/well using the Multidrop Combi. The assay plates were incubated for 72 h at 37° C. with 5% CO2. After addition of 5 μl/well of 2× AlamarBlue dye (Life Technologies, cat. no. DALI 100), the plates were incubated for 24 h at 37° C. with 5% CO2 and were read in a fluorescence detection mode (Ex=525 nm, Em=598 nm) on a ViewLux plate reader (PerkinElmer).
Stage III-V gametocytes (blood stage P. falciparum parasites) were enriched with treatment with 50 mM N-acetylglucosamine (NAG) and Percoll density gradient centrifugation as described previously^1. Briefly, 2.5 μl/well incomplete medium was dispensed into each well of 1,536-well plates using the Multidrop Combi followed by 23 nl compound transfer using the NX-TR Pintool (WAKO Scientific Solutions, San Diego, Calif.). Then, 2.5 μl/well of gametocytes was dispensed with a seeding density of 20,000 cells/well using the Multidrop Combi. The assay plates were incubated for 72 h at 37° C. with 5% CO2. After addition of 5 μl/well of 2× AlamarBlue dye (Life Technologies, cat. no. DALI 100), the plates were incubated for 24 h at 37° C. with 5% CO2 and then were read in a fluorescence detection mode (Ex=525 nm, Em=598 nm) on a ViewLux plate reader (PerkinElmer).

Structure (SMILES)	EC50 [1]	Sol @ pH 7.4 (Solubility at pH 7.4)	Microsomal Stability (rat) T1/2 [2]	mTOR (mTOR)	EC50 [3]	Gametocyte EC50 [3]
C[C@@H]1CN(C(=O)c2ccc(-n3c(=O)ccc4cnc5ccc(-c6ccc(Cl)cc6)cc5c43)cc2)C[C@H](C)O1 [Compound 101]	107 nM	<1.0 ug/mL	4.5 min	1780 nM	305 nM	–
Cc1cc(C(=O)N2CCOCC2)ccc1-n1c(=O)ccc2cnc3ccc(-c4ccc(Cl)cc4)cc3c21 [Compound 110]	40.8 nM	1.1 ug/mL	2.2 min	9459 nM	139 nM	–
NCc1ccc(-c2ccc3ncc4ccc(=O)n(-c5ccc(C(=O)N6CCOCC6)cc5)c4c3c2)cc1 [Compound 111]	241 nM	19.8 ug/mL	>30.0 min	1135 nM	285 nM	–
CNC(=O)c1ccc(-n2c(=O)ccc3cnc4ccc(-c5ccc(Cl)cc5)cc4c32)c(C)c1 [Compound 112]	76.8 nM	5 ug/mL	5 min	3581 nM	179 nM	–
O=C(O)c1cc(-c2ccc3ncc4ccc(=O)n(-c5ccc(C(=O)N6CCOCC6)cc5)c4c3c2)ccc1Cl [Compound 117]	14400 nM	>80.0 ug/mL	>30.0 min	4734 nM	–	Inactive
COc1cccc(-c2ccc3ncc4ccc(=O)n(-c5ccc(C(=O)N6CCOCC6)cc5)c4c3c2)c1 [Compound 123]	145 nM	–	7.3 min	857 nM	442 nM	–
O=C(c1ccc(-n2c(=O)ccc3cnc4ccc(-c5ccc(Cl)cc5)cc4c32)cc1)N1C2CCCC1CC2 [Compound 137]	188 nM	<1.0 ug/mL	1.6 min	1518 nM	1000 nM	–
O=C(c1ccc(-n2c(=O)ccc3cnc4ccc(-c5ccc(Cl)cc5)cc4c32)cc1)N(C1CCCCC1)C1CC1 [Compound 142]	13800 nM	<1.0 ug/mL	1.4 min	46170 nM	50000 nM	–
CC1CC1NC(=O)c1ccc(-n2c(=O)ccc3cnc4ccc(-c5ccc(Cl)cc5)cc4c32)cc1 (stereo not shown) [Compound 176]	90.2 nM	<0.10 ug/mL	–	556.2 nM	283 nM	–
CC1CC1NC(=O)c1ccc(-n2c(=O)ccc3cnc4ccc(-c5ccc(CN(C)C)cc5)cc4c32)cc1 (stereo not shown) [Compound 177]	–	>74.00 ug/mL	–	9038 nM	902 nM	–
CN(C)CCc1ccc(-c2ccc3ncc4ccc(=O)n(-c5ccc(C(=O)N6CCOCC6)cc5)c4c3c2)cc1 [Compound 186]	207 nM	–	–	12440 nM	573 nM	–
CC(C)(N)c1ccc(-c2ccc3ncc4ccc(=O)n(-c5ccc(C(=O)N6CCOCC6)cc5)c4c3c2)cc1 [Compound 187]	1600 nM	0 ug/mL	–	724.6 nM	4590 nM	–
COc1cc(C(=O)NC2CC2)ccc1-n1c(=O)ccc2cnc3ccc(-c4ccc(CN(C)C)cc4)cc3c21 [Compound 190]	–	>77 ug/mL	>30 min	10680 nM	248 nM	–
NC(=O)c1cccc(-n2c(=O)ccc3cnc4ccc(-c5ccc(N)nc5)cc4c32)c1 [Compound 333]	239 nM	–	–	213.5 nM	411 nM	–
COc1cc(-c2ccc3ncc4c(c3c2)n(-c2cc(C#N)ccc2C)c(=O)n4C)ccc1F [Compound 409]	52.9 nM	0 ug/mL	–	50000 nM	106 nM	–
Cc1ccc(C#N)cc1-n1c(=O)n(C)c2cnc3ccc(-c4ccc(F)cc4)cc3c21 [Compound 411]	61.4 nM	0 ug/mL	–	100000 nM	109 nM	–
Cn1c(=O)n(-c2cccc(C#N)c2)c2c3cc(-c4ccc(C#N)cc4)ccc3ncc21 [Compound 442]	449 nM	–	–	100000 nM	1990 nM	–
Cn1c(=O)n(-c2cccc(C#N)c2)c2c3cc(-c4ccc5[nH]cnc5c4)ccc3ncc21 [Compound 445]	269 nM	–	–	630.3 nM	735 nM	–

Further lines, with some results ahead:

EC50 [1]	Sol @ pH 7.4 (Solubility at pH 7.4)	Microsomal Stability (rat) T1/2 [2]	mTOR (mTOR)	Structure (SMILES)	EC50 [3]	Gametocyte EC50 [3]
29.9 nM	<1.0 ug/mL	13.6 min	1370 nM	Nc1cc(-c2ccc3ncc4ccc(=O)n(-c5ccc(C(=O)N6CCOCC6)cc5)c4c3c2)ccc1Cl [Compound 113]	75.9 nM	–
6.95 nM	<1.0 ug/mL	23.3 min	431.3 nM	O=C(c1ccc(-n2c(=O)ccc3cnc4ccc(-c5ccc(Cl)c(O)c5)cc4c32)cc1)N1CCOCC1 [Compound 114]	13.6 nM	–
6.6 nM	<1.0 ug/mL	>30.0 min	269.1 nM	Nc1ccc(-c2ccc3ncc4ccc(=O)n(-c5ccc(C(=O)N6CCOCC6)cc5)c4c3c2)cc1 [Compound 118]	29.6 nM	–
7.55 nM	<1.0 ug/mL	18.4 min	75.39 nM	O=C(c1ccc(-n2c(=O)ccc3cnc4ccc(-c5ccc(O)cc5)cc4c32)cc1)N1CCOCC1 [Compound 119]	32.4 nM	–
7.5 nM	<1.0 ug/mL	>30.0 min	224.6 nM	O=C(c1ccc(-n2c(=O)ccc3cnc4ccc(-c5ccc(CO)cc5)cc4c32)cc1)N1CCOCC1 [Compound 120]	35.9 nM	–
10 nM	0 ug/mL	–	100000 nM	Cc1ccc(C#N)cc1-n1c(=O)n(C)c2cnc3ccc(-c4ccc(F)c(C#N)c4)cc3c21 [Compound 408]	305 nM	–
2.49 nM	0 ug/mL	–	100000 nM	Cc1ccc(C#N)cc1-n1c(=O)n(C)c2cnc3ccc(-c4ccc(Cl)c(C#N)c4)cc3c21 [Compound 410]	36.3 nM	–
6.57 nM	0 ug/mL	–	100000 nM	Cc1ccc(C#N)cc1-n1c(=O)n(C)c2cnc3ccc(-c4cccc(C#N)c4)cc3c21 [Compound 412]	39.9 nM	–
29.4 nM	0 ug/mL	–	2730 nM	Cn1c(=O)n(-c2cccc(C#N)c2)c2c3cc(-c4ccc(CCN)cc4)ccc3ncc21 [Compound 413]	54 nM	–
14.2 nM	–	–	584.2 nM	Cn1c(=O)n(-c2ccc(N3CCNCC3)c(C#N)c2)c2c3cc(-c4ccc(F)cc4)ccc3ncc21 [Compound 414]	38.7 nM	–
21.4 nM	–	–	15870 nM	Cc1cc(N2CCNCC2)c(C#N)cc1-n1c(=O)n(C)c2cnc3ccc(-c4ccc(Cl)cc4)cc3c21 [Compound 415]	18.6 nM	–
39.6 nM	–	–	930.6 nM	Cc1cc(N2CCNCC2)c(C#N)cc1-n1c(=O)n(C)c2cnc3ccc(-c4ccc(F)cc4)cc3c21 [Compound 416]	21.6 nM	–
